Laboratory results published in patent US20210093558A1 (Bryn Pharma, LLC, priority 2018, published 2021).

Tested on: histamine induced nasal congestion

## NCCc1c[nH]cn1 [Histamine, histamine]
5% histamine aerosol for 5 minutes
  induction of nasal congestion: induced congestion in all animals to varying degrees
5 and 10 minutes post-histamine exposure, Group 1
  nasal congestion and flow restriction pressure: progressive increase in nasal congestion and flow restriction pressure
Pilot study, 60, 80 and 100 minute time points
  histamine induced congestion without epinephrine: remains elevated at significant levels
